Earlier results, collected in patent US20130280259A1, “USE OF ANTIBODIES AGAINST NK1, NK2 AND/OR NK3 RECEPTORS IN CANCER TREATMENT” (SERVICIO ANDALUZ DE SALUD, priority 2010, published 2013).

Tested on: advanced pancreatic cancer, advanced gastric cancer, glioblastoma, breast cancer
Settings: breast cancer after first-line chemotherapy (Procc ASCO 1999-2002); cited from earlier work

CNC(=O)[C@@H](NC(=O)[C@H](CC(C)C)[C@H](O)C(=O)NO)C(C)(C)C [Marimastat]
Efficacy for the treatment of cancer: effective
